Some results are limits rather than exact numbers.

Data set [1] has as its system ADPKD cyst-lining epithelia. The conditions noted are these: dose-dependent and time-dependent; cited from earlier work.
In data set [2] the test system is human renal epithelial cells (HKC). Conditions: cited from earlier work.
A further data set deals with T1, PPAR-γ (Homo sapiens, UniProt P37231).
T1 construct: expressed in transfected cells; host or cells: U2OS cells, transiently transfected with pcDNA3.1 expression vectors (FuGene6)
T1 sequence (P37231 1-505): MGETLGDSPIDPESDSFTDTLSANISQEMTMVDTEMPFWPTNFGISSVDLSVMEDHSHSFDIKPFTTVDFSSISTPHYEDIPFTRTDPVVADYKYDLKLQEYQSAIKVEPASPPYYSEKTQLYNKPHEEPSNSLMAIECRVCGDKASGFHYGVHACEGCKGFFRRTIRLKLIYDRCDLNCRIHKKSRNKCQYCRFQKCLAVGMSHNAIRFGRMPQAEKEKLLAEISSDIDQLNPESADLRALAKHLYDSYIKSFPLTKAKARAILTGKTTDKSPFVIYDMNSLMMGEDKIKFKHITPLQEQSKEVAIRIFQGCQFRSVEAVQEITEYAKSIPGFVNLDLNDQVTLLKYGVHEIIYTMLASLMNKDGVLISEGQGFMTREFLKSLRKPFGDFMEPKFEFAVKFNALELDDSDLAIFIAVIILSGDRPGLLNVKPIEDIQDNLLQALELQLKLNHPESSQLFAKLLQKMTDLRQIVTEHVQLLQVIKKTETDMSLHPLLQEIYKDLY
T1 sequence (P19793 1-462 partner): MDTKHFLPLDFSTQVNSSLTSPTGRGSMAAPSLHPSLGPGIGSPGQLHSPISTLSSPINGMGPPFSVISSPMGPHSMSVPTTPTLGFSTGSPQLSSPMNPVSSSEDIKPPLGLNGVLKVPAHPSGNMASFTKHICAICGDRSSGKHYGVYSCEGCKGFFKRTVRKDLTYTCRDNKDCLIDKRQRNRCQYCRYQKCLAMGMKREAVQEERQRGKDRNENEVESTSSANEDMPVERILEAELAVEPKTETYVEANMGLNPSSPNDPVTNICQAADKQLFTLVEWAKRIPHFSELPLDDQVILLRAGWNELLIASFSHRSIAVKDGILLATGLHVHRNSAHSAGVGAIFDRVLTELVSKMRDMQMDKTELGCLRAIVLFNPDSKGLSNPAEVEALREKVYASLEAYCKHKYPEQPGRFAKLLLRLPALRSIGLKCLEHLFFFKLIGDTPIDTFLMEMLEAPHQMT
The experiment in a line: Transient transfection and transcription assay (luciferase reporter, U2OS cells). Format: cell-based. Conditions: 24 h treatment. (In a reporter assay the amount or activity of a reporter protein is the signal.)

A further data set relates to SPC-A1. The experiment in a line: Growth inhibition, modified MTT assay, SPC-A1. In kind it is cell-based. The conditions noted are these: SPCA1, mean of 3 independent tests. The method, boiled down: (§1)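 Cells seeded 24 h in 10% FCS medium, switched to serum-free medium for 24 h, then exposed to graded compound concentrations in triplicate. Viability read by MTT (4 h), formazan dissolved in DMSO, OD at 492 nm; IC50 from sigmoidal fit, mean of 3 independent tests.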
On the technique in general: Tetrazolium dyes change colour on reduction, which living cells bring about.

In a further data set the test system is T24. The experiment in a line: Growth inhibition, modified MTT assay, T24. Format: cell-based. The conditions noted are these: Homo sapiens, T-24, mean of 3 independent tests. In short, it runs like this:
as §1

A further data set has as its system HepG2. The experiment in a line: Growth inhibition, modified MTT assay, HepG2. Format: cell-based. Conditions: Homo sapiens, mean of 3 independent tests. In short, it runs like this: as §1
The subject of the next data set is MCF-7. The experiment in a line: Growth inhibition, modified MTT assay, MCF-7. Format: cell-based. Conditions: Homo sapiens, MCF7; MCF-7, MTT, mean of 3 independent tests. The method, boiled down:
as §1

Data set [3] concerns Han:SPRD rats, animal model of ADPKD. The experiment in a line: Administration of rosiglitazone on the Han:SPRD rats (earlier study). Format: in vivo, rat. Conditions: when they died, chronic high dose.

Regarding `CCCCC/C=C/C=C1/C(=O)C=C[C@@H]1C/C=C\CCCC(=O)O` [Compound 15d-PGJ2, 15d-PGJ2], in [1], the “apoptosis of ADPKD cyst-lining epithelia” value is recorded as “induce apoptosis” and the “proliferation of ADPKD cyst-lining epithelia” value is “inhibit the proliferation”. For the same compound, the “effect on human renal epithelial cells (HKC)” value in data set [2] is “relatively weak”.

For orientation: EC50 means the midpoint of the concentration-response curve. What is called IC50 is the point on the concentration scale where inhibition reaches its midpoint. A high value points to a need for much substance. For orientation: melting point means the temperature, or range, at which the solid turns liquid. Consider `CC(Cc1ccc(Oc2cc(N3CCN(Cc4ccccc4)CC3)nc(Oc3ccccc3)n2)cc1)(Oc1ccccc1)C(=O)O` (centres unmarked) [Compound 43, 3-{4-[6-(4-Benzyl-piperazin-1-yl)-2-phenoxy-pyrimidin-4-yloxy]-phenyl}-2-methyl-2-phenoxy-propionic acid], for which the melting point fell in the range of 126 to 128 °C. At PPAR-γ, this compound came in with a concentration giving a half-maximal response (EC50) of 1.62 µM. This compound yielded an IC50 in the data set on SPC-A1 of 32.5 µM. In addition, the IC50 in the data set on T24 is above 50 µM. This compound also gave a half-inhibitory concentration (IC50) in the data set with HepG2 above 50 µM. The compound further returned an IC50 in the data set with MCF-7 of 33.5 µM.

Compound `CC(Cc1ccc(Oc2cc(N3CCN(Cc4ccc(Br)cc4)CC3)nc(N)n2)cc1)(Oc1ccccc1)C(=O)O` (centres unmarked) [Compound 15, 3-{4-{2-Amino-6-[4-(4-bromo-benzyl)-piperazin-1-yl]-pyrimidin-4-yloxy}-phenyl}-2-methyl-2-phenoxy-propionic acid] came in with a melting point of 112 to 114 °C. Further, a half-maximal effect at PPAR-γ (EC50) was put at 5.89 µM. In addition, in the data set on SPC-A1, the IC50 came to 45.3 µM. Also, the IC50 in the data set with T24 is above 50 µM. Moreover, the IC50 with HepG2 was above 50 µM. This compound gave a 50% inhibitory concentration (IC50) in the data set with MCF-7 of 42.2 µM.

`CN(C)c1nc(Oc2ccc(CC(C)(Oc3ccccc3)C(=O)O)cc2)cc(N2CCN(Cc3ccccc3)CC2)n1` (centres unmarked) [Compound 49, 3-{4-[6-(4-Benzyl-piperazin-1-yl)-2-dimethylamino-pyrimidin-4-yloxy]-phenyl}-2-methyl-2-phenoxy-propionic acid] showed a melting point of 136 to 138 °C. Further, the response at PPAR-γ was half-maximal at 2.95 µM (EC50). The concentration for half-maximal inhibition (IC50) with SPC-A1 was above 50 µM. In the data set on T24, this compound displayed a half-inhibitory concentration (IC50) above 50 µM. Moreover, the 50% inhibitory concentration (IC50) in the data set on HepG2 was above 50 µM. This compound registered an IC50 in the data set with MCF-7 above 50 µM.

In turn, `CC(Cc1ccc(Oc2cc(Oc3ccccc3)nc(N3CCN(Cc4ccccc4)CC3)n2)cc1)(Oc1ccccc1)C(=O)O` (centres unmarked) [Compound 44, 3-{4-[2-(4-Benzyl-piperazin-1-yl)-6-phenoxy-pyrimidin-4-yloxy]-phenyl}-2-methyl-2-phenoxy-propionic acid] gave a melting point of 135 to 137 °C. This compound yielded a 50% effective concentration (EC50) on PPAR-γ of 4.68 µM. The compound also displayed an IC50 in the data set on SPC-A1 of 14.1 µM. Moreover, half-maximal inhibition in the data set with T24 (IC50) required 11.1 µM. The compound also yielded a concentration for half-maximal inhibition (IC50) in the data set with HepG2 of 35.2 µM. The compound also came in with an IC50 in the data set on MCF-7 of 15.4 µM.

Consider `CN(CCOc1ccc(CC2SC(=O)NC2=O)cc1)c1ccccn1` (centres unmarked) [Rosiglitazone, reference compound], for which the IC50 is 59.8 µM in the data set with SPC-A1, 69 µM in the data set on T24, 80.2 µM with HepG2 and 45.6 µM in the data set on MCF-7. Further, the “heart and liver weight” value in [3] was “heart and liver weight gain”.

In turn, `CC(Cc1ccc(Oc2cc(N3CCN(Cc4ccc5c(c4)OCO5)CC3)nc(N)n2)cc1)(Oc1ccccc1)C(=O)O` (centres unmarked) [Compound 5] had a melting point of 190 to 192 °C. Besides, a half-maximal effect at PPAR-γ (EC50) was put at 6.46 µM. This compound also came in with a half-maximal inhibitory concentration (IC50) with SPC-A1 above 50 µM. This compound also registered a half-inhibitory concentration (IC50) in the data set with T24 above 50 µM. For the same compound, the half-maximal inhibitory concentration (IC50) in the data set on HepG2 was above 50 µM. Besides, the half-inhibitory concentration (IC50) in the data set on MCF-7 is above 50 µM.

The compound `CC(Cc1ccc(Oc2cc(N3CCN(Cc4ccccc4)CC3)nc(NCc3ccccc3)n2)cc1)(Oc1ccccc1)C(=O)O` (centres unmarked) [Compound 47, 3-{4-[2-Benzylamino-6-(4-benzyl-piperazin-1-yl)-pyrimidin-4-yloxy]-phenyl}-2-methyl-2-phenoxy-propionic acid] came in with a melting point of 104 to 106 °C. A half-maximal effect on PPAR-γ (EC50) was put at 6.31 µM. In the data set on SPC-A1, this compound returned an IC50 of 31.5 µM. The same compound registered an IC50 in the data set with T24 above 50 µM. The compound also returned a 50% inhibitory concentration (IC50) in the data set with HepG2 above 50 µM. Also, the IC50 in the data set on MCF-7 was found to be 22.8 µM.

For the compound `CC(Cc1ccc(Oc2cc(N3CCN(Cc4cccc(F)c4)CC3)nc(N)n2)cc1)(Oc1ccccc1)C(=O)O` (centres unmarked) [Compound 12, 3-{4-{2-Amino-6-[4-(3-fluoro-benzyl)-piperazin-1-yl]-pyrimidin-4-yloxy}-phenyl}-2-methyl-2-phenoxy-propionic acid], the melting point is 113 to 115 °C. The same compound had an EC50 on PPAR-γ of 6.46 µM. In the data set on SPC-A1, this compound displayed an IC50 above 50 µM. The compound further displayed an IC50 in the data set with T24 above 50 µM. In addition, the IC50 in the data set with HepG2 is above 50 µM. The compound also gave a half-inhibitory concentration (IC50) in the data set on MCF-7 above 50 µM.

Compound `CC(Cc1ccc(Oc2cc(N3CCN(Cc4cccc(Br)c4)CC3)nc(N)n2)cc1)(Oc1ccccc1)C(=O)O` (centres unmarked) [Compound 16, 3-{4-{2-Amino-6-[4-(3-bromo-benzyl)-piperazin-1-yl]-pyrimidin-4-yloxy}-phenyl}-2-methyl-2-phenoxy-propionic acid] came in with a melting point of 119 to 120 °C. The EC50 on PPAR-γ turned out to be 6.31 µM. Besides, the IC50 in the data set with SPC-A1 worked out at 37 µM. Moreover, the IC50 in the data set on T24 was found to be 41 µM. For the same compound, the IC50 in the data set with HepG2 stood at 48 µM. The compound also came in with a concentration for half-maximal inhibition (IC50) in the data set on MCF-7 of 30 µM.

Compound `CC(Cc1ccc(Oc2cc(N3CCN(Cc4ccccc4)CC3)nc(N3CCOCC3)n2)cc1)(Oc1ccccc1)C(=O)O` (centres unmarked) [Compound 53, 3-{4-[6-(4-Benzyl-piperazin-1-yl)-2-morpholin-4-yl-pyrimidin-4-yloxy]-phenyl}-2-methyl-2-phenoxy-propionic acid] came in with a melting point of 127 to 129 °C. The 50% effective concentration (EC50) on PPAR-γ was found to be 3.98 µM. Besides, the 50% inhibitory concentration (IC50) in the data set with SPC-A1 amounted to 22.4 µM. The compound also returned an IC50 with T24 of 15.8 µM. For the same compound, half-maximal inhibition in the data set with HepG2 (IC50) required 22.2 µM. For the same compound, the IC50 with MCF-7 stood at 12.5 µM.

The compound `CC(Cc1ccc(Oc2cc(N3CCN(Cc4ccccc4)CC3)ncn2)cc1)(Oc1ccccc1)C(=O)O` (centres unmarked) [Compound 28, 3-{4-[6-(4-benzyl-piperazin-1-yl)-pyrimidin-4-yloxy]-phenyl}-2-methyl-2-phenoxy-propionic acid] returned a melting point of 107 to 109 °C. Moreover, at PPAR-γ, it took 4.68 µM to reach a half-maximal effect (EC50). The 50% inhibitory concentration (IC50) in the data set with SPC-A1 is 28.6 µM. This compound yielded an IC50 in the data set with T24 of 19.6 µM. In addition, the IC50 with HepG2 came out at 29.3 µM. In addition, half-maximal inhibition in the data set on MCF-7 (IC50) was put at 14.6 µM.

Compound `CC(Cc1ccc(Oc2cc(N3CCN(Cc4ccccc4)CC3)nc(N3CCCC3)n2)cc1)(Oc1ccccc1)C(=O)O` (centres unmarked) [Compound 54, 3-{4-[6-(4-Benzyl-piperazin-1-yl)-2-pyrrolidin-1-yl-pyrimidin-4-yloxy]-phenyl}-2-methyl-2-phenoxy-propionic acid] yielded a melting point of 126 to 127 °C. Besides, the EC50 at PPAR-γ turned out to be 3.8 µM. Also, in the data set on SPC-A1, the half-maximal inhibitory concentration (IC50) is above 50 µM. Moreover, the IC50 with T24 was above 50 µM. For the same compound, the IC50 with HepG2 is above 50 µM. The same compound registered a half-inhibitory concentration (IC50) with MCF-7 above 50 µM.

(Values after patent publication US8513233B2, “Pyrimidinyl-propionic acid derivatives and their use as PPAR agonists” (Shanghai Institute of Materia Medica, CAS, priority 2007, dated 2013).)
